Patent EP3057951B1, “METHYLENE LINKED QUINOLINYL MODULATORS OF ROR-GAMMA-T” (Janssen Pharmaceutica NV, priority 2013, dated 2015)
Where “and” joins values, the source holds several entries; their conditions need not be identical. Equal values may be shown once. Read-outs that look alike come from different tables or passages of the source.

Columns and labels:
[1] = target: T1, wild type human RORγt LBD (Homo sapiens, UniProt P51449); test: RORγt (LBD) Reporter Assay (GAL4-luciferase, HEK293T cells); format: cell-based; conditions: for RORγt (LBD) Reporter Assay, % inhibition @ 6 µM: 6 µM compound concentration; for inhibition at 6 µM: HEK-293T, read-out: RORγt (LBD) Reporter Assay, % inhibition @ 6 µM, 6 µM compound concentration
T1 construct: expressed in transfected cells; host or cells: HEK293T
T1 sequence (P51449 258-518): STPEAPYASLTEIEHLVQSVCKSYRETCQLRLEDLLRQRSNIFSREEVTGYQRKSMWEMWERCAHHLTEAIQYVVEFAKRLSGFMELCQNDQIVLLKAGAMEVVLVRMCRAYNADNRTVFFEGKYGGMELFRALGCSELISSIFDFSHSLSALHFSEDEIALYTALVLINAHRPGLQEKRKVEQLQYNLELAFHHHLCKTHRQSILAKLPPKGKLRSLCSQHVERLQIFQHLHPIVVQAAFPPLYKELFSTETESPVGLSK

[2] = target: T2, wild type human RORγt ligand binding domain (RORyt LBD) (Homo sapiens, UniProt P51449); test: RORγt ThermoFluor assay (thermal shift, binding affinity KD)
T2 construct: His-tag (N); TurboTEV protease cleavage site (ENLYFQG) (N); made in house; host or cells: E. coli (pHIS1, modified pET vector)
T2 sequence (P51449 258-518): T1 sequence (P51449 258-518)

[3] = HEK293T cells, value after the comma with ∼, > or < could not be included in the average

Structure (SMILES) | RORγt (LBD) Reporter Assay, % inhibition @ 6 µM [1] [%] | IC50 [1, 3] [nM] | Kd [2] [nM] | inhibition at 6 µM [1] [%] | IC50 ([1]; HEK293T cells) | inhibition at 6 µM ([1]; HEK293T cells) [%] | RORγt (LBD) Reporter Assay, % inhibition @ 6 µM ([1]; HEK293T cells) [%]
Cc1cc(C(O)(c2ccnc(C(F)(F)F)c2)c2cncn2C)cc2c(C#N)c(Cc3ccc(-n4cccn4)cc3)c(C#N)nc12 (single isomer, unassigned) [Example 83c, 3-(4-(1H-Pyrazol-1-yl)benzyl)-6-(hydroxy(1-methyl-1H-imidazol-5-yl)(2-(trifluoromethyl)pyridin-4-yl)methyl)-8-methylquinoline-2,4-dicarbonitrile] | 100 | 1500 | 450 | – | – | – | –
Cn1cc(-c2nc3ccc(C(O)(c4ccc(C(F)(F)F)nc4)c4cncn4C)cc3c(C#N)c2Cc2ccccc2)cn1 (single isomer, unassigned) [Example 112b, 3-Benzyl-6-(hydroxy(1-methyl-1H-imidazol-5-yl)(6-(trifluoromethyl)pyridin-3-yl)methyl)-2-(1-methyl-1H-pyrazol-4-yl)quinoline-4-carbonitrile] | 92 | 450 | 2200 | – | – | – | –
COc1nc2ccc(C(O)(c3oc(C)nc3C)c3cnnn3C)cc2c(Cl)c1Cc1ccc(C(F)(F)F)cc1 (stereo not drawn) [Example 156a, (4-chloro-2-methoxy-3-(4-(trifluoromethyl)benzyl)quinolin-6-yl)(2,4-dimethylozazol-5-yl)(1-methyl-1H-1,2,3-triazol-5-yl)methanol] | – | – | 0.63 | – | 6.6 nM | 94 | –
COc1nc2ccc(C(O)(c3ccc(F)cc3)c3cncn3C)cc2c(Cl)c1Cc1ccc(-n2cccn2)cc1 (single isomer, unassigned) [Example 160b, (3-(4-(1H-Pyrazol-1-yl)benzyl)-4-chloro-2-methoxyquinolin-6-yl)(4-fluorophenyl)(1-methyl-1H-imidazol-5-yl)methanol] | – | – | 460 | – | 680 nM | 105 | –
Cn1cncc1C(O)(c1ccc(Cl)cc1)c1ccc2nc(N3CCC3)c(Cc3ccc(-n4cccn4)cc3)c(Cl)c2c1 (single isomer, unassigned) [Example 138b, {2-Azetidin-1-yl-4-chloro-3-[4-(1H-pyrazol-1-yl)benzyl]quinolin-6-yl}(4-chlorophenyl)(1-methyl-1H-imidazol-5-yl)methanol] | – | – | 1300 | – | 560 nM | 101 | –
COc1c(Cc2ccccc2)c(C(F)(F)F)nc2ccc(C(O)(c3ccccn3)c3cncn3C)cc12 (single isomer, unassigned) [Example 98b, (3-Benzyl-4-methoxy-2-(trifluoromethyl)quinolin-6-yl)(1-methyl-1H-imidazol-5-yl)(pyridin-2-yl)methanol] | 74 | ~5000 | 2200 | – | – | – | –
COCCN(C)c1nc2ccc(C(O)(c3ccc(Cl)cc3)c3cncn3C)cc2c(Cl)c1Cc1ccc(-n2cccn2)cc1 (stereo not drawn) [Example 127, {4-Chloro-2-[(2-methoxyethyl)(methyl)amino]-3-[4-(1H-pyrazol-1-yl)benzyl]quinolin-6-yl}(4-chlorophenyl)(1-methyl-1H-imidazol-5-yl)methanol] | – | – | 350 | – | 240 nM | 101 | –
Cc1cc(C(O)(c2ccc(Cl)cc2)c2cncn2C)cc2c(Cl)c(Cc3ccc(-n4cccn4)cc3)c(N3CCC3)nc12 (single isomer, unassigned) [Example 136b, {2-Azetidin-1-yl-4-chloro-8-methyl-3-[4-(1H-pyrazol-1-yl)benzyl]quinolin-6-yl}(4-chlorophenyl)(1-methyl-1H-imidazol-5-yl)methanol] | – | – | 2300 | – | 1000 nM | 83 | –

Further compounds by falling Kd [2], results first:

RORγt (LBD) Reporter Assay, % inhibition @ 6 µM [1] [%] | IC50 [1, 3] [nM] | Kd [2] [nM] | inhibition at 6 µM [1] [%] | IC50 ([1]; HEK293T cells) | inhibition at 6 µM ([1]; HEK293T cells) [%] | RORγt (LBD) Reporter Assay, % inhibition @ 6 µM ([1]; HEK293T cells) [%] | Structure (SMILES)
– | – | 140 | – | 170 nM | 107 | – | COc1nc2ccc(C(O)(c3ccc(F)cc3)c3cccnc3)cc2c(Cl)c1Cc1ccc(-n2cccn2)cc1 (single isomer, unassigned) [Example 158b, (3-(4-(1H-Pyrazol-1-yl)benzyl)-4-chloro-2-methoxyquinolin-6-yl)(4-fluorophenyl)(pyridin-3-yl)methanol]
91 | 88 | 50 | – | – | – | – | COc1nc2ccc(C(O)(c3ccccc3)C3CCN(C(C)=O)CC3)cc2c(Cl)c1Cc1ccc(-n2cncn2)cc1 (single isomer, unassigned) [Example 18c, 1-(4-((3-(4-(1H-1,2,4-Triazol-1-yl)benzyl)-4-chloro-2-methoxyquinolin-6-yl)(hydroxy)(phenyl)methyl)piperidin-1-yl)ethanone]
– | – | 23 | – | 77 nM | – | 95 | Cn1cncc1C(O)(c1ccc(C(F)(F)F)nc1)c1ccc2nc(N3CC(F)(F)C3)c(Cc3ccc(-n4cccn4)cc3)c(Cl)c2c1 (single isomer, unassigned) [Example 135c, {4-Chloro-2-(3,3-difluoroazetidin-1-yl)-3-[4-(1H-pyrazol-1-yl)benzyl]quinolin-6-yl}(1-methyl-1H-imidazol-5-yl)[6-(trifluoromethyl)pyridin-3-yl]methanol]
– | 24 | 5.2 | 99 | – | – | – | COc1nc2ccc(C(O)(c3cnnn3C)c3cnc(C)n3C)cc2c(C#N)c1Cc1ccc(C(F)(F)F)nc1 (single isomer, unassigned) [Example 44b, 6-((1,2-Dimethyl-1H-imidazol-5-yl)(hydroxy)(1-methyl-1H-1,2,3-triazol-5-yl)methyl)-2-methoxy-3-((6-(trifluoromethyl)pyridin-3-yl)methyl)quinoline-4-carbonitrile]
– | 15 | 5 | 102 | – | – | – | COc1nc2ccc(C(O)(c3cnnn3C)C3CCN(C(C)=O)CC3)cc2c(Cl)c1Cc1ccc(C(F)(F)F)cc1 (single isomer, unassigned) [Example 74b, 1-(4-((4-Chloro-2-methoxy-3-(4-(trifluoromethyl)benzyl)quinolin-6-yl)(hydroxy)(1-methyl-1H-1,2,3-triazol-5-yl)methyl)piperidin-1-yl)ethanone]
– | 24 | 2.8 | 99 | – | – | – | COc1nc2ccc(C(O)(c3ccc(C)nc3C)c3cnnn3C)cc2c(C#N)c1Cc1ccc(C(F)(F)F)nc1 (stereo not drawn) [Example 41a, 6-((2,6-Dimethylpyridin-3-yl)(hydroxy)(1-methyl-1H-1,2,3-triazol-5-yl)methyl)-2-methoxy-3-((6-(trifluoromethyl)pyridin-3-yl)methyl)quinoline-4-carbonitrile]
90 | 2.6 | 2.2 | – | – | – | – | COc1nc2ccc(C(O)(c3cnnn3C)c3cnc(C)n3C)cc2c(C#N)c1Cc1ccc(F)cc1 (single isomer, unassigned) [Example 66c, 6-((1,2-Dimethyl-1H-imidazol-5-yl)(hydroxy)(1-methyl-1H-1,2,3-triazol-5-yl)methyl)-3-(4-fluorobenzyl)-2-methoxyquinoline4-carbonitrile]
32 | > 6000 | 1.2 | – | – | – | – | Cn1cncc1C(O)(c1ccc(C(F)(F)F)nc1)c1ccc2nc(C#N)c(Cc3ccc(F)cc3)c(C#N)c2c1 (single isomer, unassigned) [Example 53b, 3-(4-Fluorobenzyl)-6-(hydroxy(1-methyl-1H-imidazol-5-yl)(6-(trifluoromethyl)pyridin-3-yl)methyl)quinoline-2,4-dicarbonitrile]
– | 13 | 0.73 | 100 | – | – | – | COc1nc2ccc(C(O)(c3ccc(C)nc3C)C3CN(C(C)=O)C3)cc2c(Cl)c1Cc1ccc(C(F)(F)F)cc1 (single isomer, unassigned) [Example 87b, 1-(3-((4-Chloro-2-methoxy-3-(4-(trifluoromethyl)benzyl)quinolin-6-yl)(2,6-dimethylpyridin-3-yl)(hydroxy)methyl)azetidin-1-yl)ethanone]
– | – | 0.39 | – | ~6 nM | – | 98 | Cc1ccc(C(O)(c2ccc3nc(N4CC(F)(F)C4)c(Cc4ccc(C(F)(F)F)cc4)c(Cl)c3c2)c2cnnn2C)c(C)n1 (single isomer, unassigned) [Example 148c, {4-Chloro-2-(3,3-difluoroazetidin-1-yl)-3-[4-(trifluoromethyl)benzyl]quinolin-6-yl}(2,6-dimethylpyridin-3-yl)(1-methyl-1H-1,2,3-triazol-5-yl)methanol]
– | – | 0.15 | – | 0.66 nM and ~1 nM | – | 99 | Cc1ccc(C(O)(c2ccc3nc(N4CCC4)c(Cc4ccc(C(F)(F)F)cc4)c(Cl)c3c2)c2cnnn2C)c(C)n1 (single isomer, unassigned) [Example 140c, {2-Azetidin-1-yl-4-chloro-3-[4-(trifluoromethyl)benzyl]quinolin-6-yl}(2,6-dimethylpyridin-3-yl)(1-methyl-1H-1,2,3-triazol-5-yl)methanol]
97 | 46 | 0.03 | – | – | – | – | CCc1nc2ccc(C(O)(c3ccc(C)nc3C)c3cnnn3C)cc2c(Cl)c1Cc1ccc(C(F)(F)F)cc1 (single isomer, unassigned) [Example 23c, (4-Chloro-2-ethyl-3-(4-(trifluoromethyl)benzyl)quinolin-6-yl)(2,6-dimethylpyridin-3-yl)(1-methyl-1H-1,2,3-triazol-5-yl)methanol]
